Columns and labels:
[1] = Stability in human liver microsomes (NADPH-dependent); format: in vitro ADME
Text: Liver microsomes are an in vitro model for in vivo metabolism and elimination of a drug by the liver (and gut) cytochrome P450 system. A compound's stability in liver microsomes in vitro is predictive of its metabolism and elimination in vivo. We examined the stability of SX-682 in liver microsomes together with several other cogeners to quantify the microsomal stability of SX-682 and identify potential structure-activity relationships (SAR) predictive of stability or instability (see Figure 5).
The compounds were incubated in duplicate with human liver microsomes at 37°C. The reaction contained microsomal protein in 100 mM potassium phosphate, 2 mM NADPH, 3 mM MgCl2, pH 7.4. A control was run for each compound omitting NADPH to detect NADPH-independent degradation. An aliquot was removed from each experimental and control reaction at 0, 10, 20, 30, and 60 minutes and mixed with an equal volume of ice-cold Stop Solution (0.3% acetic acid in acetonitrile containing haloperidol, diclofenac, or other internal standard). Stopped reactions were incubated for at least ten minutes at -20°C, and an additional volume of water was added. The samples were centrifuged to remove precipitated protein, and the supernatants were analyzed by LCMS/MS to quantitate the remaining compound. Data were converted to percent remaining by dividing by the time zero concentration value. Data were fit to a first-order decay model to determine half-life. Intrinsic clearance was calculated from the half-life and the protein concentrations: CLint = ln(2)/(t½ [microsomal protein]).

[2] = Stability in human plasma; format: in vitro ADME
Method: The in vitro stability of SX-682 and the cogeners of Metabolic Stability Example 1 (Figure 5) were further studied in human plasma. The reactions were initiated by the addition of 5 µL of a 500 µM DMSO stock solution to 495 µL of preheated plasma solution to yield a final concentration of 5 µM. The assays were performed in a heat block at 37°C and conducted in duplicate. Samples (50 µL) were taken at 0, 30, 60, 120, 240 min and added to 150 µL acetonitrile in order to deproteinize the plasma. The samples were subjected to vortex mixing for 1 min and then centrifugation for 15 min at 14,000 rpm. The clear supernatants were analyzed by LC-MS.
The in vitro plasma half life (t½) was calculated using the expression t½ = ln(2)/b, where b is the slope found in the linear fit of the natural logarithm of the fraction remaining of the parent compound vs. incubation time.

[3] = system: neutrophils; test: Murine air-pouch model of inflammation; format: in vivo; details: depending on the dose given
[4] = molecular target: T1, CXCR1 (Homo sapiens, UniProt P25024); test: Wash-resistant inhibition of CXCL8-mediated calcium flux after inhibitor washout, CXCR1 RBL cells; format: cell-based; details: RBL cells stably transfected with CXCR1; 30 minutes incubation at 37°C with 0.4, 2, 10 µM, then washout; time points up to 12 h
T1 construct: expressed in transfected cells; host or cells: RBL cells (stably transfected)
T1 sequence (P25024 1-350): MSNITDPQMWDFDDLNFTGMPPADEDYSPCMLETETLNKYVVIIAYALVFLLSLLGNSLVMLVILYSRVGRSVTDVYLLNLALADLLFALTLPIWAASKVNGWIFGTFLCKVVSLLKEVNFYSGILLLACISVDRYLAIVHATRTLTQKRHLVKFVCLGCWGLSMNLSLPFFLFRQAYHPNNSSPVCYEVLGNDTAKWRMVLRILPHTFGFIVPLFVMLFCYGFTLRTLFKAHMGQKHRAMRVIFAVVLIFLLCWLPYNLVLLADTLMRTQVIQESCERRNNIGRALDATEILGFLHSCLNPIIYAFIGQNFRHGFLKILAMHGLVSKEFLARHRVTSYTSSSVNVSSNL
Method: (§1) SX-682 contains a boronic acid moiety that has the potential to form a transient covalent linkage with hydroxyl-bearing amino acid side chains in the binding site of its protein target.
(§2) In order to test this hypothesis, RBL cells (10^7 cells/mL) stably transfected with either CXCR1 or CXCR2 were (1) incubated with SX-682 at various concentrations for 30 minutes at 37°C, (2) washed and resuspended in assay buffer (RPMI/2% serum) at room temperature, and (3) assayed for CXCL8-mediated calcium response at time points up to 12 h after inhibitor washout. The concentrations of SX-682 tested were 0 (positive control), 0 (negative control), 0.4, 2, and 10 µM. At 30 minutes before each time point, a 56.25 µL aliquot of the cells were removed and loaded for 30 minutes at room temperature in the dark with FLIPR-3 reagent (262.5 µl per tube). Following FLIPR-3 incubation, cells were assayed for CXCL8 mediated intracellular calcium release as described in Pharmacology Example 1.

[5] = molecular target: T2, CXCR2 (Homo sapiens, UniProt P25025); test: Wash-resistant inhibition of CXCL8-mediated calcium flux after inhibitor washout, CXCR2 RBL cells; format: cell-based; details: RBL cells stably transfected with CXCR2; 30 minutes incubation at 37°C with 0.4, 2, 10 µM, then washout; time points up to 12 h
T2 construct: expressed in transfected cells; host or cells: RBL cells (stably transfected)
T2 sequence (P25025 1-360): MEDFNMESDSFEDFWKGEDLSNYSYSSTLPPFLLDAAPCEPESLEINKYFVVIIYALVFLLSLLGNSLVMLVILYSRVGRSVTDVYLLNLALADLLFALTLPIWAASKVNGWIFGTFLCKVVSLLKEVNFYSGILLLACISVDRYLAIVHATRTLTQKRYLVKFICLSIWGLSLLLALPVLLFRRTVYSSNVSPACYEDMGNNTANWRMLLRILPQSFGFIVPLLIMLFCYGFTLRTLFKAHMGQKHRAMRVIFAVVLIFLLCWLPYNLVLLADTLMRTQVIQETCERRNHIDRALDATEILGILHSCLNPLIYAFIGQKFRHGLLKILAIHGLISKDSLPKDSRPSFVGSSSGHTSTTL
Method: as §1, §2

[6] = system: isolated human neutrophils; test: Inhibition of CXCL8-mediated intracellular calcium release, isolated human neutrophils; format: cell-based; details: Neutrophil; human neutrophils (Human PMNs); CXCL8 25 nM; mean ± SE, n = 4
Method: (§3) Briefly, cells (either isolated human neutrophils or RBL cells stably transfected with either CXCR1 or CXCR2) were suspended in HBSS^- (without Ca^2+ and Mg^2+) containing 10 mM HEPES and FLIPR Calcium 3 dye (3.1 x 10^7 cells in total volume 1.7 mL). Cells were aliquoted (200 µL of the cell suspension per tube, 8 tubes total) and 2 µL of the designated compound (with appropriate dilutions) were added to each of 6 tubes. As controls, 2 µL of DMSO (1% final concentration) were added to 2 other tubes. Cells were incubated for 30 min at 37 °C. After dye loading, tubes were centrifuged at 6,000 rpm for 1 min, supernatant was removed and the cell pellet was re-suspended in 200 µL of HBSS^+ (with Ca^2+ and Mg^2+) containing 10 mM HEPES. […] The cell suspension was aliquoted into a 96-well Reading Plate (Coming) in a volume of 90 µL (10^5 cells/well). […] After 15 sec of reading the basal level of fluorescence by FlexStation II, 10 µL of CXCL8 or HBSS^-were automatically transferred from the Compound Plate into the Reading Plate (final concentration of CXCL8 was 25 nM). Changes in fluorescence were monitored (λex = 485 nm, λem = 525 nm) every 5 s for 240 to 500 s at room temperature.
(§4) The maximum change in fluorescence, expressed in arbitrary units over baseline (Max-Min), was used to determine the CXCL8 response. […]

[7] = system: neutrophils; test: Ozone rat model of pulmonary inflammation (neutrophil influx into BALF); format: in vivo, Sprague-Dawley rats; details: for influx of neutrophils into the lungs (BALF) as compared to control rats treated with vehicle only: 1 mg/kg intravenously once at t = 0, 1 ppm ozone for 4 hours, BALF at t = 24 hours, n = 4 per cohort
Method: SX-682 was assayed in an in vivo rat model of pulmonary inflammation. Activity in this model of pulmonary inflammation provides evidence that supports the use of SX-682 in the treatment of a number of pulmonary inflammatory diseases, including chronic obstructive pulmonary disease (COPD) and bronchopulmonary dysplasia (BPD). In this experiment, Sprague-Dawley rats (n = 4 per cohort) were dosed intravenously only once at t = 0 with either vehicle control (dimethylformamide/PEG400/saline, 40:40:20), positive inhibitor control (SX-576, 1 mg/kg) or the test compound (SX-682, 1 mg/kg). The rats were then placed in air (negative exposure group; vehicle control only) or 1 ppm ozone (positive exposure group; vehicle control, positive inhibitor control SX-576, and test compound SX-682) for 4 hours. The rats were then sacrificed at t = 24 hours, and the bronchoalveolar lavage fluid (BALF) was collected. The cells were spun down, stained with Wright-Giemsa and counted. In the negative exposure group, no neutrophils were observed when stained. In the ozone exposed rats treated with vehicle however, there was a brisk influx of neutrophils of approximately 14,000 per mL of BALF (see Figure 4).

[8] = molecular target: T1, CXCR1; test: Inhibition of CXCL8-mediated intracellular calcium release, RBL cells stably transfected with CXCR1; format: cell-based; details: CXCL8 25 nM, mean ± SE, n = 4
Method: as §3, §4

[9] = molecular target: T2, CXCR2; test: Inhibition of CXCL8-mediated intracellular calcium release, RBL cells stably transfected with CXCR2; format: cell-based; details: CXCL8 25 nM, mean ± SE, n = 4
Method: as §3, §4

[10] = 37°C, 2 mM NADPH, pH 7.4, first-order decay model
[11] = 5 µM, incubation at 37°C, LC-MS/MS detection

Compound: O=C(Nc1ccc(F)cc1)c1ccc(SCc2ccccc2B(O)O)nc1 [SX-517]
- t½ (Half-life) [1, 10]: 6.75 h
- t½ [2, 11]: 1.88 h
- fold reduction in plasma half-life ([2]; structural comparison with sulfur / F3CO-bearing cogeners): 5 fold
- activity on neutrophils in vivo [3]: both inhibitory and agonist activity on neutrophils were achieved

Compound: O=C(Nc1ccc(F)cc1)c1cnc(SCc2cc(OC(F)(F)F)ccc2B(O)O)nc1 [SX-682, 2-(2-Boronic acid-5-trifluoromethoxy-benzylsulfanyl)-pyrimidine-5-carboxylic acid (4-fluoro-phenyl)-amide]
- inhibition of CXCL8-mediated intracellular calcium flux sustained after washout [4]: at least 12 hours
- inhibition of CXCL8-mediated intracellular calcium flux sustained after washout [5]: at least 12 hours
- IC50 [6]: 55 ± 6 nM
- fold larger half life than SX-671 or SX-576 [1]: 6 fold
- half-life ([1]; 37°C, 2 mM NADPH, pH 7.4, first-order decay model, read-out: t½ (Half-life)): 5.42 h
- influx of neutrophils into the lungs (BALF) as compared to control rats treated with vehicle only [7]: significantly decreased the influx of neutrophils
- inhibition of neutrophil chemotaxis, comparison of the two inhibitors tested ([7]; SX-682 vs SX-576, each 1 mg/kg intravenously, ozone exposed rats): markedly more robust inhibition of neutrophil chemotaxis
- inhibition of neutrophil influx into the BALF sustained after a single dose ([7]; single dose of 1 mg/kg intravenously, ozone exposed rats): 24 h
- IC50 [8]: 42 ± 3 nM
- IC50 [9]: 20 ± 2 nM
- half-life at 5 µM ([2]; 5 µM, incubation at 37°C, LC-MS/MS detection, read-out: t½): 11.6 h

Compound: O=C(Nc1ccc(F)cc1)c1ccc(SCc2cc(OC(F)(F)F)ccc2B(O)O)nc1 [SX-576, reference compound]
- t½ (Half-life) [1, 10]: 0.833 h
- influx of neutrophils into the lungs (BALF) as compared to control rats treated with vehicle only [7]: significantly decreased the influx of neutrophils
- t½ [2, 11]: 8.88 h
- activity on neutrophils in vivo [3]: both inhibitory and agonist activity on neutrophils were achieved
